According to patent US11254686B1 (Corvus Pharmaceuticals, Inc., priority 2017, dated 2022):

Legend:
[1] = molecular target: adenosine A2A receptor (Homo sapiens (Human), UniProt P29274); assay: Adenosine receptor activity assay (Table 1), A2A activity; format: biochemical; settings: read-out: Ave A2A cAMP IC50
[2] = molecular target: adenosine A2B receptor (Homo sapiens (Human), UniProt P29275); assay: Adenosine receptor activity assay (Table 1), A2B activity; format: biochemical; settings: for IC50: read-out: Ave A2B cAMP IC50
[3] = A2A activity to A2B activity (A2A/A2B)
[4] = A2A activity to the A2B activity, A2A/A2B

Sequence of adenosine A2A receptor (P29274 whole entry): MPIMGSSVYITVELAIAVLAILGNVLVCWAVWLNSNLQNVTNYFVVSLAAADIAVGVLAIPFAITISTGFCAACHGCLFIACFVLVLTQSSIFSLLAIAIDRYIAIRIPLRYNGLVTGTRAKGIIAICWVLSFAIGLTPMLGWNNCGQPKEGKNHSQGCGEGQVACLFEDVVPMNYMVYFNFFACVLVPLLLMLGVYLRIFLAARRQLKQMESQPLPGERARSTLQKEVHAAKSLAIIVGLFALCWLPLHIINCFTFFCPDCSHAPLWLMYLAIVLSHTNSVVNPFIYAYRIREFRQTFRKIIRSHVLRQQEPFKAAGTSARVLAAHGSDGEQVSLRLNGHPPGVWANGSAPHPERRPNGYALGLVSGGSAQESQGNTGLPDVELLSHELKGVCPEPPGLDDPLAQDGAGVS
Sequence of adenosine A2B receptor (P29275 whole entry): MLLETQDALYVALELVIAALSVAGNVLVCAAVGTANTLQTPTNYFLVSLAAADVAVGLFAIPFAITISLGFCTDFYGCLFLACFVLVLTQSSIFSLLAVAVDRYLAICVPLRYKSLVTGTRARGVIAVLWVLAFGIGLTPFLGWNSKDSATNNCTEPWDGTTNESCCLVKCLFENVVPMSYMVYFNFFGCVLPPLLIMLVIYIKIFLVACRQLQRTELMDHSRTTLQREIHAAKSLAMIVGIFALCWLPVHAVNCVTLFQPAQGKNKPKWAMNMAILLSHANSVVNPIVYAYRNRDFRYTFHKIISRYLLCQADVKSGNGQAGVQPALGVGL

Compound | IC50 [1] | Ratio [2, 3] | IC50 [2] | Ratio [2, 4]
C[C@H](Nc1nc(C(=O)N(C)CCc2ccc(O)cc2)c2sccc2n1)c1cncc(F)c1 [Example Z396, (S)-2-((1-(5-Fluoropyridin-3-yl)ethyl)amino)-N-(4-hydroxyphenethyl)-N-methylthieno[3,2-d]pyrimidine-4-carboxamide] | > 0.5 µM | 6.83 | > 0.5 µM | –
C[C@H](Nc1nc(C(=O)NC2CNC2)c2sccc2n1)c1cncc(F)c1 [Example Z397, (S)—N-(Azetidin-3-yl)-2-((1-(5-fluoropyridin-3-yl)ethyl)amino)thieno[3,2-d]pyrimidine-4-carboxamide] | > 0.5 µM | 11.51 | > 0.5 µM | –
COc1ccc(Oc2cc(CNC(=O)c3nc(N[C@@H](C)c4cncc(F)c4)nc4ccsc34)ccn2)cc1 [Example Z398, (S)-2-((1-(5-Fluoropyridin-3-yl)ethyl)amino)-N-((2-(4-methoxyphenoxy)pyridin-4-yl)methyl)thieno[3,2-d]pyrimidine-4-carboxamide] | 0.1 to 0.5 µM | 2.82 | 0.1 to 0.5 µM | –
CO[C@@H](C)CNC(=O)c1nc(N[C@@H](C)c2cccnc2)nc2cc(C)sc12 [Example Z399, N—((S)-2-Methoxypropyl)-6-methyl-2-(((S)-1-(pyridin-3-yl)ethyl)amino)thieno[3,2-d]pyrimidine-4-carboxamide] | > 0.5 µM | – | 0.01 to 0.05 µM | 161.94
CO[C@H](C)CNC(=O)c1nc(N[C@@H](C)c2cccnc2)nc2cc(C)sc12 [Example Z400, N—((R)-2-Methoxypropyl)-6-methyl-2-(((S)-1-(pyridin-3-yl)ethyl)amino)thieno[3,2-d]pyrimidine-4-carboxamide] | > 0.5 µM | – | 0.05 to 0.1 µM | 12.22
C[C@H](Nc1nc(C(=O)N2CCCC2)c2sccc2n1)c1ccnc(F)c1 [Example Z406, (S)-(2-((1-(2-Fluoropyridin-4-yl)ethyl)amino)thieno[3,2-d]pyrimidin-4-yl)(pyrrolidin-1-yl)methanone] | 0.1 to 0.5 µM | – | 0.01 to 0.05 µM | –
C[C@H](Nc1nc(C(=O)N2CC[C@H](O)C2)c2sccc2n1)c1ccnc(F)c1 [Example Z407, (2-(((S)-1-(2-Fluoropyridin-4-yl)ethyl)amino)thieno[3,2-d]pyrimidin-4-yl)((S)-3-hydroxypyrrolidin-1-yl)methanone] | > 0.5 µM | – | 0.1 to 0.5 µM | 8.11
C[C@H](Nc1nc(C(=O)N2CC[C@@H](O)C2)c2sccc2n1)c1ccnc(F)c1 [Example Z408, (2-(((S)-1-(2-Fluoropyridin-4-yl)ethyl)amino)thieno[3,2-d]pyrimidin-4-yl)((R)-3-hydroxypyrrolidin-1-yl)methanone] | > 0.5 µM | – | 0.05 to 0.1 µM | 6.69
C[C@H](Nc1nc(C(=O)NCCc2cccc(Oc3ccccc3)c2)c2sccc2n1)c1cncc(F)c1 [Example Z417, (S)-2-((1-(5-Fluoropyridin-3-yl)ethyl)amino)-N-(3-phenoxyphenethyl)thieno[3,2-d]pyrimidine-4-carboxamide] | > 0.5 µM | – | 0.1 to 0.5 µM | 4.87
COc1ccc(CCNC(=O)c2nc(N[C@@H](C)c3cncc(F)c3)nc3ccsc23)cc1 [Example Z420, (S)-2-((1-(5-Fluoropyridin-3-yl)ethyl)amino)-N-(4-methoxyphenethyl)thieno[3,2-d]pyrimidine-4-carboxamide] | 0.1 to 0.5 µM | – | 0.05 to 0.1 µM | 5.38
COC(=O)c1ccc(CCNC(=O)c2nc(N[C@@H](C)c3cncc(F)c3)nc3ccsc23)cc1 [Example Z423, Methyl (S)-4-(2-(2-((1-(5-fluoropyridin-3-yl)ethyl)amino)thieno[3,2-d]pyrimidine-4-carboxamido)ethyl)benzoate] | > 0.5 µM | – | 0.1 to 0.5 µM | 5.22
C[C@H](Nc1nc(C(=O)NCCC2CCCC2)c2sccc2n1)c1ccccn1 [Example Z424, (S)—N-(2-Cyclopentylethyl)-2-((1-(pyridin-2-yl)ethyl)amino)thieno[3,2-d]pyrimidine-4-carboxamide] | 0.05 to 0.1 µM | – | 0.05 to 0.1 µM | 1.46
C[C@H](Nc1nc(C(=O)NCCC2CCN(C(=O)OC(C)(C)C)C2)c2sccc2n1)c1ccccn1 (stereo partly drawn) [Example Z425, tert-Butyl 3-(2-(2-(((S)-1-(pyridin-2-yl)ethyl)amino)thieno[3,2-d]pyrimidine-4-carboxamido)ethyl)pyrrolidine-1-carboxylate] | 0.05 to 0.1 µM | – | 0.1 to 0.5 µM | 0.82
C[C@H](Nc1nc(C(=O)NCCC2CN(C(=O)OC(C)(C)C)C2)c2sccc2n1)c1ccccn1 [Example Z426, tert-Butyl (S)-3-(2-(2-((1-(pyridin-2-yl)ethyl)amino)thieno[3,2-d]pyrimidine-4-carboxamido)ethyl)azetidine-1-carboxylate] | 0.1 to 0.5 µM | – | 0.05 to 0.1 µM | 3.47
C[C@H](Nc1nc(C(=O)NCCC2CCNC2)c2sccc2n1)c1ccccn1 (stereo partly drawn) [Example Z431, 2-(((S)-1-(Pyridin-2-yl)ethyl)amino)-N-(2-(pyrrolidin-3-yl)ethyl)thieno[3,2-d]pyrimidine-4-carboxamide] | > 0.5 µM | – | 0.1 to 0.5 µM | 37.04
C[C@H](Nc1nc(C(=O)NCCC2CNC2)c2sccc2n1)c1ccccn1 [Example Z432, (S)—N-(2-(Azetidin-3-yl)ethyl)-2-((1-(pyridin-2-yl)ethyl)amino)thieno[3,2-d]pyrimidine-4-carboxamide] | > 0.5 µM | – | 0.1 to 0.5 µM | 57.47
COc1ccc(CNc2nc(C(=O)NC3CCC3)c3sccc3n2)cn1 [Example Z434, N-Cyclobutyl-2-(((6-methoxypyridin-3-yl)methyl)amino)thieno[3,2-d]pyrimidine-4-carboxamide] | 0.05 to 0.1 µM | – | > 0.5 µM | 0.08
COc1ccc(CNc2nc(C(=O)NCc3cccnc3)c3sccc3n2)cn1 [Example Z436, 2-(((6-Methoxypyridin-3-yl)methyl)amino)-N-(pyridin-3-ylmethyl)thieno[3,2-d]pyrimidine-4-carboxamide] | 0.1 to 0.5 µM | – | > 0.5 µM | 0.15
COc1cccc(CCNC(=O)c2nc(N[C@@H](C)c3ccccn3)nc3ccsc23)c1 [Example Z437, (S)—N-(3-Methoxyphenethyl)-2-((1-(pyridin-2-yl)ethyl)amino)thieno[3,2-d]pyrimidine-4-carboxamide] | 0.1 to 0.5 µM | – | 0.1 to 0.5 µM | –
CCO[C@@H]1CCN(C(=O)c2nc(N[C@@H](C)c3ccccn3)nc3ccsc23)C1 [Example Z438, ((R)-3-Ethoxypyrrolidin-1-yl)(2-(((S)-1-(pyridin-2-yl)ethyl)amino)thieno[3,2-d]pyrimidin-4-yl)methanone] | 0.05 to 0.1 µM | – | 0.01 to 0.05 µM | 2.65
CCOc1ccc(CNc2nc(C(=O)NCCc3cccc(O)c3)c3sccc3n2)cn1 [Example Z439, 2-(((6-Ethoxypyridin-3-yl)methyl)amino)-N-(3-hydroxyphenethyl)thieno[3,2-d]pyrimidine-4-carboxamide] | 0.1 to 0.5 µM | – | > 0.5 µM | 0.29
CO[C@H]1CCN(C(=O)c2nc(N[C@@H](C)c3ccccn3)nc3c(C)csc23)C1 [Example Z440, ((S)-3-Methoxypyrrolidin-1-yl)(7-methyl-2-(((S)-1-(pyridin-2-yl)ethyl)amino)thieno[3,2-d]pyrimidin-4-yl)methanone] | 0.1 to 0.5 µM | – | 0.1 to 0.5 µM | 1.91
CO[C@@H]1CCN(C(=O)c2nc(N[C@@H](C)c3ccccn3)nc3c(C)csc23)C1 [Example Z441, ((R)-3-Methoxypyrrolidin-1-yl)(7-methyl-2-(((S)-1-(pyridin-2-yl)ethyl)amino)thieno[3,2-d]pyrimidin-4-yl)methanone] | 0.01 to 0.05 µM | – | 0.01 to 0.05 µM | 1.21
CCO[C@H]1CCN(C(=O)c2nc(N[C@@H](C)c3ccccn3)nc3ccsc23)C1 [Example Z442, ((S)-3-Ethoxypyrrolidin-1-yl)(2-(((S)-1-(pyridin-2-yl)ethyl)amino)thieno[3,2-d]pyrimidin-4-yl)methanone] | 0.1 to 0.5 µM | – | 0.1 to 0.5 µM | 2.19
Cc1csc2c(C(=O)NCc3ccccc3)nc(N[C@@H](C)c3ccccn3)nc12 [Example Z443, (S)—N-Benzyl-7-methyl-2-((1-(pyridin-2-yl)ethyl)amino)thieno[3,2-d]pyrimidine-4-carboxamide] | 0.01 to 0.05 µM | – | 0.05 to 0.1 µM | 0.44
COc1cccc(CCNC(=O)c2nc(N[C@@H](C)c3ccccn3)nc3c(C)csc23)c1 [Example Z444, (S)—N-(3-Methoxyphenethyl)-7-methyl-2-((1-(pyridin-2-yl)ethyl)amino)thieno[3,2-d]pyrimidine-4-carboxamide] | 0.05 to 0.1 µM | – | 0.1 to 0.5 µM | 0.35
C[C@H](Nc1nc(C(=O)NCCc2cccc(C#N)c2)c2sccc2n1)c1cncc(F)c1 [Example Z445, (S)—N-(3-Cyanophenethyl)-2-((1-(5-fluoropyridin-3-yl)ethyl)amino)thieno[3,2-d]pyrimidine-4-carboxamide] | > 0.5 µM | – | 0.05 to 0.1 µM | 9.62
C[C@H](Nc1nc(C(=O)NCC2CCN(CCc3ccccc3)CC2)c2sccc2n1)c1ccccn1 [Example Z446, (S)—N-((1-Phenethylpiperidin-4-yl)methyl)-2-((1-(pyridin-2-yl)ethyl)amino)thieno[3,2-d]pyrimidine-4-carboxamide] | > 0.5 µM | – | > 0.5 µM | 0.56
Cc1csc2c(C(=O)NCCc3cccc(O)c3)nc(N[C@@H](C)c3ccccn3)nc12 [Example Z447, (S)—N-(3-Hydroxyphenethyl)-7-methyl-2-((1-(pyridin-2-yl)ethyl)amino)thieno[3,2-d]pyrimidine-4-carboxamide] | 0.05 to 0.1 µM | – | 0.05 to 0.1 µM | 1.23
